Experiment [1] concerns APP/PS1-derived primary microglia. Briefly: Transwell migration assay (Aβ chemotaxis) of primary microglia. To be noted: 200nM C18:1-Leu, 24h, conditioned Aβ media in lower chamber; n=6, p=0.0007. In kind it is cell-based, mice. Here is the method: (§1) • Fig. 1. C18:1-Leu treatment in neuronal cultures. a, Enzyme-linked immunosorbent assays (ELISA) of APP/PS1-derived hippocampal neuronal cultures treated during 24h with 200nM C18:1-Leu. n=5 per group, p=0.0093; one-sided Student's t-test. b, Lactate dehydrogenase (LDH) release viability assay of APP/PS1-derived hippocampal neuronal cultures treated during 16h with 150µM H2O2 and 200nM C18:1-Leu. ROS, reactive oxygen species. n=10 per group, p=0.0048; one-sided Student's t-test. b, AlamarBlue cell viability assay of SH-SY5Y cells treated during 24h with 10µM thapsigargin and 200nM C18:1 -Leu. UPS, unfolded-protein stress. n=5 per group, p=0.0084; one-sided Student's t-test. Single values (experiments) are represented by dots. *p<0.05, and **p<0.01. • Fig. 2. […] AD pathologies and phenotypes in APP/PS1 mice. a, Methoxy-X04 (MX04) IHC amyloid burden (area) quantification. n=8 per group, p=0.0283; one-sided Student's t-test. b, Novel object recognition (NOR) performance of vehicle and C18:1-Leu treated APP/PS1 mice. […]

Experiment [2] relates to APP/PS1-derived hippocampal neuronal cultures. The experiment in a line: ELISA of Aβ production in primary hippocampal neuronal cultures. In kind it is cell-based, mice. The following applies: 200nM C18:1-Leu, 24h vs vehicle; n=5, p=0.0093. Here is the method: as §1
Experiment [3] deals with APP/PS1 mice. The experiment in a line: Novel object recognition test in APP/PS1 mice. The following applies: 25 mg/kg/day p.o. during three months, starting at 15 months-of-age; n=11-15, p=0.0312. In kind it is in vivo. How it is done: as §1
Another experiment concerns SH-SY5Y cells. Briefly: AlamarBlue cell viability assay under thapsigargin (unfolded-protein stress). The following applies: 200nM C18:1-Leu, 24h with 10µM thapsigargin; n=5, p=0.0084. It is filed as cell-based, human. How it is done:
as §1
For orientation: The colour change of resazurin is a common sign of viable cells or microbes.

Experiment [4] has as its system APP/PS1 mice. Briefly: Immunohistochemistry of brain sections of treated APP/PS1 mice (amyloid plaques, microglia, neuronal damage). It is filed as in vivo. Here is the method:
• Fig. 1. C18:1-Leu treatment in neuronal cultures. a, Enzyme-linked immunosorbent assays (ELISA) of APP/PS1-derived hippocampal neuronal cultures treated during 24h with 200nM C18:1-Leu. n=5 per group, p=0.0093; one-sided Student's t-test. b, Lactate dehydrogenase (LDH) release viability assay of APP/PS1-derived hippocampal neuronal cultures treated during 16h with 150µM H2O2 and 200nM C18:1-Leu. ROS, reactive oxygen species. n=10 per group, p=0.0048; one-sided Student's t-test. b, AlamarBlue cell viability assay of SH-SY5Y cells treated during 24h with 10µM thapsigargin and 200nM C18:1 -Leu. UPS, unfolded-protein stress. n=5 per group, p=0.0084; one-sided Student's t-test. Single values (experiments) are represented by dots. *p<0.05, and **p<0.01. • Fig. 2. AD pathologies and phenotypes in GMC101 worms. a, Mobility assessment in vehicle and C18:1-Leu treated GMC101 worms during the 3 first days of adulthood. a.u., arbitrary units. n=75-100 worms per time, p=0.0001 and p=0.0152 for day 2 and 3, respectively; one-sided Student's t-test. b, Pumping per minute in vehicle and C18:1-Leu treated GMC101 worms at day 3. n=7 per group, p=0.0162; one-sided t-test. c, Relative amyloid aggregation in vehicle and C18:1-Leu treated GMC101 worms at day 1. n=6 experiments of -1000 worms each, pval=0.0108; one-sided Student's t-test. Single values (animals) are represented by dots. *p<0.05, and ***p<0.001. • Fig. 3. AD pathologies and phenotypes in APP/PS1 mice. a, Methoxy-X04 (MX04) IHC amyloid burden (area) quantification. n=8 per group, p=0.0283; one-sided Student's t-test. b, Novel object recognition (NOR) performance of vehicle and C18:1-Leu treated APP/PS1 mice. C18:1-Leu was provided from 15 to 18 months (m) of age. n=11-15 per group, p=0.0312. Single values (animals) are represented by dots. *p<0.05, **p<0.01, and ***p<0.001. • Fig. 4. Microglia analysis in C18:1-Leu treated APP/PS1 mice. a, Quantification of Ionized calcium-binding adaptor molecule 1 (IBA1, microglia) area within methoxy-X04 (MX04, amyloid plaques) region of interest (ROI). n=6-7 per group, p=0.0051; one-sided Student's t-test. b, Amyloid plaque number quantification. n=8 per group, p=0.0444; one-sided Student's t-test. c, Percentage of amyloid halo (diffuse, toxic) area over plaque dense core. n=8 per group, p=0.0389; one-sided Student's t-test. d, Percentage of the Lysosome-associated protein 1 (LAMP1, neuronal damage) area over to plaque dense core. n=8-9 per group, p=0.0132; one-sided Student's t-test. Single values (animals) are represented by dots. *p<0.05, and **p<0.01. • Fig. 5. C18:1-Leu treatment in microglia cultures. a, Transwell assay of APP/PS1-derived primary microglia treated during 24h with 200nM C18:1-Leu. n=6 per group, p=0.0007; one-sided Student's t-test. b, Amyloid-beta 40 (Aβ40) ELISA assays of APP/PS1-derived primary microglia cultures after 24h of 200nM C18:1-Leu treatment in presence of amyloid-beta (Aβ). n=5 per group, p=0.0201; one-sided Student's t-test. Single values (experiments) are represented by dots. *p<0.05, **p<0.01, and ***p<0.001. • Fig. 6. RNA expression signatures in human samples I. C18:1-Leu score according to PM20D1 haplotype in Alzheimer's disease (AD) and control postmortem brain samples. a, n=387 control and n=511 AD samples, Wilcoxon test, ****p<0.0001 • Fig. 7. RNA expression signatures in human samples II. Correlation between PIG and C18:1-Leu scores in AD samples. n=511 AD samples, Spearman correlation. • Fig. 8. […]

The subject of experiment [5] is APP/PS1-derived hippocampal neuronal cultures. Briefly: LDH release viability assay under H2O2 (ROS) stress. It is filed as cell-based, mice. The following applies: 200nM C18:1-Leu, 16h with 150µM H2O2 (Fig. 1b legend); n=10, p=0.0048. How it is done: as §1
Experiment [6] relates to GMC101 worms. Briefly: Mobility phenotyping of GMC101 worms (AD model). In kind it is in vivo, C. elegans. The following applies: 200 µM C18:1-Leu, first 3 days of adulthood, vs vehicle. How it is done:
as §1

Experiment [7] relates to APP/PS1-derived primary microglia. The experiment in a line: Aβ clearance by primary microglia, Amyloid beta 40 ELISA. The following applies: 200nM C18:1-Leu, 24h in presence of Aβ; n=5, p=0.0201. It is filed as cell-based, mice. Here is the method: as §1
(In general: An ELISA detects its analyte on a solid surface through an enzyme-linked reagent.)

The subject of experiment [8] is GMC101 worms. Briefly: Amyloid aggregation in GMC101 worms (western blot). In kind it is in vivo, C. elegans. The following applies: 200 µM C18:1-Leu, GMC101 worms at day 1, vs vehicle; p=0.0108. Here is the method:
as §1
A general note: In western blotting, separated proteins are transferred to a membrane and probed.

Each structure is given as a SMILES string.

As for `CCCCCCCC/C=C\CCCCCCCC(=O)N[C@@H](CC(C)C)C(=O)O` [C18:1-Leu, N-oleoyl-L-Leucine], the “Aβ chemotaxis (migrated microglia)” value in experiment [1] is on record as “increased Aβ chemotaxis”. In addition, the Aβ production entry in experiment [2] is “reduces Aβ production in neuronal cells”. Besides, the “cognitive deficits (novel object recognition test)” value in the experiment on APP/PS1 mice [3] was “improves”. For the same molecule, the “neuroprotection against UPS stress (cell viability, AlamarBlue)” value in the experiment with SH-SY5Y cells is on record as “increases neuroprotection”. Also, in the experiment with APP/PS1 mice [4] (25 mg/kg/day p.o. during three months, starting at 15 months-of-age, n=8, p=0.0283), the “amyloid burden (Methoxy-X04 IHC area)” value is listed as “improves amyloid burden”. For the same molecule, the “microglia association with amyloid plaques (relative MX04 area occupied by IBA1)” value with APP/PS1 mice [4] (C18:1-Leu treated APP/PS1 mice vs vehicle, n=6-7, p=0.0051) is reported as “increased microglia association”. Moreover, the “relative size of the diffuse halo of the plaques” value in the experiment with APP/PS1 mice [4] (C18:1-Leu treated APP/PS1 mice vs vehicle, n=8, p=0.0389) is on record as “reduced”. Also, the “number of amyloid plaques” value in the experiment on APP/PS1 mice [4] (C18:1-Leu treated APP/PS1 mice vs vehicle, n=8, p=0.0444) is recorded as “reduced”. The “LAMP1 area (neuronal damage) over plaque dense core” value in the experiment with APP/PS1 mice [4] (C18:1-Leu treated APP/PS1 mice vs vehicle, n=8-9, p=0.0132) is on record as “stronger LAMP1 area reduction”. For the same molecule, in [5], the “neuroprotection against ROS (cell viability, LDH release)” value was “increases neuroprotection against ROS”. For the same molecule, the “AD-like phenotypes - spontaneous and induced mobility” value with GMC101 worms [6] is on record as “significantly improves”. Besides, in [7], the “Aβ clearance (remaining Aβ40 in media)” value was “increases Aβ clearance”. Also, the “amyloid pathologies (relative amyloid aggregation)” value in the experiment with GMC101 worms [8] was “significantly improves”.

These data come from patent EP4635490A1, “PM20D1-DERIVED N-OLEOYL-L-LEUCINE FOR THE TREATMENT AND PREVENTION OF NEURODEGENERATIVE DISEASES” (Consejo Superior De Investigaciones Científicas, priority 2024, dated 2025).
